Reference: publication PMC8746798, “Evaluation of 2-Thioxoimadazolidin-4-one Derivatives as Potent Anti-Cancer Agents through Apoptosis Induction and Antioxidant Activation: In Vitro and In Vivo Approaches” (Molecules, 2021)

Assays:
[1] = Serum biochemical parameters in mice; format: in vivo; conditions: 6 mg/Kg BW
Experimental: (§1) We randomly divided 50 mice into groups 5 groups (10 mice in each group): normal control (I) (mice injected intraperitoneally with the same volume of solvent for 14 consecutive days); group II, a group of normal mice treated with compound 4 (mice injected intraperitoneally with newly produced compound 4 at a dose of 6 mg/kg per day for 14 days); group III, solid tumor group (mice were implanted with solid tumor); group IV, group were treated with 5-FU (after 10 days of tumor implantation, mice were treated with 6 mg/kg only once); and group V, solid tumor group were treated with compound 4 (after 10 days of tumor implantation, mice were treated with 6 mg/kg only once). after one day of the previous treatment, 10 mice from each group were sacrificed and tumor weight, tumor volume (length and width of solid femoral tumor), blood and liver samples were obtained from each group. A portion of each blood sample taken was used for complete blood count (CBC) and the rest was centrifuged to obtain the serum. Serum was used for biochemical parameter estimation. The livers were rapidly dissected, washed with isotonic saline, and dried. The experiment design is summarized in Supplementary Figure S3.
Evaluation of the activities of aspartate aminotransferase (AST) and alanine aminotransferase (ALT) using a commercial kit (ELITech Clinical Systems, France). The serum albumin level was measured using a kit obtained from STANBIO Company (USA). A commercial kit from the BioDiagnostic Company (Cairo, Egypt) was used to evaluate creatinine and urea levels.

[2] = test system: Solid Ehrlich carcinoma (SEC); assay: In vivo anti-tumor assay: tumor volume and tumor inhibition ratio; conditions: SEC-bearing mice, 6 mg/kg; SEC control 5802 mm^3
Experimental: We used adult Swiss albino female mice with average body weight 18–23 g obtained from Theodor Bilharzia Research Institute in Giza, Egypt. Mice were kept under constant conditions of a 12 h light–dark cycle at temperatures below controlled moisture conditions (22 ± 2 °C) with standard laboratory mouse nutrition and water entries. Approval for the experimental protocol was provided from the ethical committee of Suez Canal University for this experimental protocol (approval number REC-06-2020, Faculty of Science, Suez Canal University). Mice were adapted for approximately 10 days before use in the experiment.
Solid Ehrlich carcinoma (SEC) was obtained from the National Cancer Institute (University of Cairo, Egypt). The tumor cell line proliferated in mice after serial implantation of the peritoneal cavity (I.P.) in 0.2 mL of physiological saline containing 1 × 10^6 viable cells for 24 h. […]
We measured the length and width of the tumor using a digital Vernier clipper (Tricle Brand, Shanghai, China), then we calculate the tumor volume using the formula: V = (L × W × W)/2, where V is tumor volume, W is tumor width, and L is tumor length, and calculated the tumor inhibition ratio% using the formula: TIR %= (C − T)/C × 100, where T represents mean tumor volume of treated group and C represents mean tumor volume of the control group.

[3] = Hematological parameters (CBC) in mice; format: in vivo; conditions: 6 mg/Kg BW; for Hemoglobin: mean ± SE n = 9
Experimental: as §1
(§2) Complete blood counts (CBCs) were counted using an AbbottCELLDYN®1800 Automated Hematology Analyzer (Abbott Park, IL, USA) equipped with an off-the-shelf kit (Abbott Laboratories, Abbott Park, IL, USA). For microscopic histopathological examination, tumor and kidney slices were maintained in 10% formalin, dehydrated with graduated alcohol, embedded in paraffin sections, H&E stained, and hematoxylin stained.

[4] = test system: THLE-2 normal liver cells; assay: MTT assay, normal liver cells; format: cell-based; conditions: Homo sapiens, THLE-2, mean ± SE, n = 3
[5] = test system: Caspase 3 and 9, Bcl-2, PI3K, AKT proteins in HepG2 cells; assay: Western blot of apoptosis-related proteins; format: cell-based, human; conditions: treated HepG2 vs untreated control, normalized to β-actin
Experimental: Protein expression analysis for phosphorylated/total phosphatidylinositol 3-kinase (PI3K), protein kinase B (Akt), Caspase 3 and 9 proteins, and Bcl-2 was performed using the Western blotting technique to confirm the mechanism of apoptosis induction by compound 4 in HepG2 cells compared to control. Detailed methodology is supported in Supplementary Materials.

HepG2 cells = assay: Colony forming assay; format: cell-based, human; conditions: HepG2, 100 μM
Experimental: HepG2 cells were allowed to attach to form a complete monolayer after seeding 200 cells per well (6-well plate) for 24 h. Five concentrations of compound 4 (0.01, 0.1, 1, 10, 100 µM) were added to the cultured cells, and cells were incubated for 48 h, followed by washing with PBS. After 7 days of incubation, the colonies were fixed and stained with 1% crystal violet in methanol for 3 h. Finally, the crystal violet stain was used for 20 min to stain and count the cells using the light microscope.

[6] = Hepatic oxidant and antioxidant assessment; format: in vivo; conditions: liver homogenate, SEC-bearing mice, 6 mg/kg BW
Experimental: as §1
In liver tissue homogenate, a standard commercial kit (BioDiagnostic, Cairo, Egypt) was used to evaluate oxidation and antioxidant parameters according to its methodology, as previously published in Nafie et al., 2020 [57]. Lipid peroxidation (MDA) and nitric oxide (NO) are oxidants, while reduced glutathione (GSH), catalase (CAT), and superoxide dismutase (SOD) are antioxidants.

[7] = Median lethal dose (LD50); conditions: mouse, in vivo, ip; mice, I.p., 24 h mortality
Experimental: Adopting the procedure described by Finney, different known concentrations of the imidamide 4 were intraperitoneally injected into a group of eight mice (weight on average 21.1 g). […] This assay was carried out evaluate its dose-safety limit and select the dose to be used in the treatment.

[8] = Histopathological examination of liver and kidney (H&E); format: in vivo, mice
Experimental: as §1, §2
Specimens from mice liver cells were fixed in 10% formalin saline. Then, the samples were dehydrated with ascending series of ethanol and embedded in paraffin. A […] thick section was stained with hematoxylin and eosin and examined under a light microscope.

SMILES: O=C1NC(=S)N(c2ccc(O)cc2)/C1=C/c1cccs1 [Compound 4, (E)-1-(4-Hydroxyphenyl)-5-(thiophen-2-ylmethylene)-2-thioxoimidazolidin-4-one]
- Creatinine ([1]; SEC-bearing mice): 1.0 ± 0.1 mg/dL
- Albumin ([1]; SEC-bearing mice, SEC control 4.01 ± 0.4): 3.43 ± 0.1 g/dL
- Total Protein ([1]; SEC-bearing mice, SEC control 6.6 ± 0.4): 7.4 ± 0.2 g/dL
- Urea ([1]; SEC-bearing mice, SEC control 25.2 ± 2.3): 27 ± 1.5 mg/dL
- AST ([1]; SEC-bearing mice, SEC control 48.9 ± 5.5): 37.8 ± 8.4 U/L
- ALT ([1]; SEC-bearing mice, SEC control 50 ± 2.7): 37.4 ± 10.4 U/L
- Creatinine ([1]; normal mice, normal control 1.6 ± 0.2): 1.1 ± 0.2 mg/dL
- Albumin ([1]; normal mice, normal control 4.4 ± 0.4): 4.4 ± 0.8 g/dL
- Total Protein ([1]; normal mice, normal control 6.9 ± 0.4): 6.9 ± 1.5 g/dL
- Urea ([1]; normal mice, normal control 27.8 ± 2.6): 28.13 ± 2.7 mg/dL
- ALT ([1]; normal mice, normal control 35.3 ± 3.8): 43.25 ± 7.4 U/L
- AST ([1]; normal mice, normal control 37.4 ± 2.8): 44.9 ± 10.8 U/L
- tumor volume on the final day [2]: 2766 mm^3
- RBC’s count ([3]; SEC-bearing mice, SEC control 7.52 ± 0.5): 9.3 ± 0.4 ×10^6/µL
- Hemoglobin ([3]; SEC-bearing mice, SEC control 11.8 ± 0.8): 13.3 ± 0.7 g/dL
- WBC’s count ([3]; SEC-bearing mice, SEC control 16.5 ± 3.4): 9.5 ± 1.9 ×10^3/µL
- RBC’s count ([3]; normal mice, normal control 8.8 ± 0.3): 8.7 ± 0.4 ×10^6/µL
- WBC’s count ([3]; normal mice, normal control 9.4 ± 1.2): 9.42 ± 1.3 ×10^3/µL
- Hemoglobin ([3]; normal mice, normal control 13.3 ± 0.7): 12.6 ± 0.5 g/dL
- IC50 [4]: 56.6 ± 1.5 µM
- AKT protein level [5]: decreased
- BCL2 protein level [5]: decreased
- Caspase 3 protein level [5]: upregulated
- Caspase 9 protein level [5]: upregulated
- PI3K protein level [5]: decreased
- number of colonies (HepG2 cells; 464 in control): 136
- inhibition at 100 µM (HepG2 cells; Homo sapiens, 48 h treatment, read-out: colony inhibition rate): ~88%
- GSH (antioxidant) ([6]; SEC control 18.23): 39.27 mg/g Tissue
- CAT (antioxidant) ([6]; SEC control 21.69): 46.9 U/g Tissue
- SOD (antioxidant) ([6]; SEC control 27.36): 48.69 U/g Tissue
- NO (oxidative stress) ([6]; SEC control 79.69): 42.38 U/g Tissue
- MDA (oxidative stress) ([6]; SEC control 98.39, n = 6): 73.36 nmol/g Tissue
- LD50 at 24 h [7]: 6 mg/kg
- kidney histopathology ([8]; SEC-bearing mice treated): almost normal, intact renal corpuscles and tubules
- liver histopathology ([8]; SEC-bearing mice treated): liver lobules looking normal
- liver histopathology ([8]; normal mice treated): normal-looking liver lobules; some hepatocytes showed a hydropic degeneration and a balloon degeneration
